Patent US9593149B2, “Amylin and calcitonin receptor agonist” (Novo Nordisk A/S, priority 2014, dated 2017)
Peptide text beside a SMILES is read from it.

Experiments:
[1] = target: T1, human amylin 3(a) receptor (human calcitonin receptor + RAMP-3), BHK570 cells (Homo sapiens, UniProt O60896+P30988); test: Assay (II)a functional CRE-luciferase assay with albumin, human amylin receptor; format: cell-based; conditions: Tested with HSA; read-out: hAmylin-R funct. EC50
T1 construct: host or cells: BHK570
Source text: Assay(II)a—Human Calcitonin and Amylin Receptor Assay
1. Luciferase Assay Outline
Activation of calcitonin and amylin (co-expression of calcitonin receptor and receptor activity modifying proteins (RAMP)) receptors lead to increased intracellular concentrations of cAMP. Consequently, transcription is activated by promoters containing multiple copies of the cAMP response element (CRE). It is thus possible to measure amylin activity by the use of a CRE luciferase reporter gene introduced into BHK cells also expressing calcitonin or amylin receptors.
2. Construction of Calcitonin (a)—and Amylin 3(a)—Receptor/CRE-Luc Cell Line.
A BHK570 cell line was stably transfected with the human calcitonin receptor and a CRE-responsive luciferase reporter gene. The cell line was further transfected with RAMP-3, using standard methods. This turns the calcitonin receptor into an amylin 3(a) receptor. Methotrexate, Neomycin, and Hygromycin are selection markers for luciferase, the calcitonin receptor, and RAMP-3, respectively.
To perform activity assays, BHK calcitonin (a) receptor- or amylin 3(a)-receptor/CRE-luc cells were seeded in white 96 well culture plates at a density of about 20.000 cells/well. […] After incubation overnight at 37° C. and 5% CO2, the growth medium was replaced by 50 μl/well assay medium (DMEM (without phenol red), Glutamax™, 10% FBS, and 10 mM Hepes, pH 7.4). Further, 50 μl/well of standard or sample in assay buffer were added.
After 3 hours incubation at 37° C. and 5% CO2, the assay medium with standard or sample were removed and replaced by 100 μl/well PBS. Further, 100 μl/well LucLite™ was added. The plates were sealed and incubated at room temperature for 30 minutes. Finally, luminescence was tested on a TopCounter (Packard) in SPC (single photon counting) mode.

[2] = target: T1, human amylin 3(a) receptor (human calcitonin receptor + RAMP-3), BHK570 cells; test: Assay (II)b functional CRE-luciferase assay without albumin, human amylin receptor; format: cell-based; conditions: Tested without HSA; read-out: hAmylin-R funct. EC50
How it was run: (§1)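 BHK570 cells stably expressing human calcitonin receptor with CRE-luciferase reporter, plus RAMP-3 for the amylin 3(a) line. Cells stimulated 3 hours at 37 °C in albumin-free assay medium (0.1% ovalbumin, 10 mM Hepes pH 7.4); cAMP-driven luciferase read by luminescence.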

[3] = target: T2, human calcitonin (a) receptor, BHK570 cells (Homo sapiens, UniProt P30988); test: Assay (II)b functional CRE-luciferase assay without albumin, human calcitonin receptor; format: cell-based; conditions: Tested without HSA; read-out: hCTR funct. EC50
T2 construct: host or cells: BHK570
T2 sequence (P30988 25-474): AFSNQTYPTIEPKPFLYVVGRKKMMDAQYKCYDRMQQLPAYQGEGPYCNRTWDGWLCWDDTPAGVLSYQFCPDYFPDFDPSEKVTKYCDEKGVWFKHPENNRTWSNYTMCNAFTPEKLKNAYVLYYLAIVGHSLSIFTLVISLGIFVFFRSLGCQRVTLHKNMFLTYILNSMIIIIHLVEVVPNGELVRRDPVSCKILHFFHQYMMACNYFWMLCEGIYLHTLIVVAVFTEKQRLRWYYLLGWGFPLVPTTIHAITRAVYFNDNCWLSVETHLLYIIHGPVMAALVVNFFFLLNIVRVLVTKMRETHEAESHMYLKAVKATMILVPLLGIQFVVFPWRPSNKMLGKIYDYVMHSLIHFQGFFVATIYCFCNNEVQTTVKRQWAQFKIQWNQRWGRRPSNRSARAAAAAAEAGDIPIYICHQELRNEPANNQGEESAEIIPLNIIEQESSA
How it was run: as §1

[4] = Assay (IV) determination of solubility; format: physicochemical
Procedure: Assay (IV)—Determination of Solubility
The mimylin peptide was dissolved in water at ˜500 nmol/ml and mixed 1:1 with a series of buffers (100 mM glycylglycine pH 3.0, 100 mM glycylglycine pH 4.0, 100 mM glycylglycine pH 5.0, 100 mM bistrispropane pH 6.0, 100 mM bistrispropane pH 6.5, 100 mM bistrispropane pH 7.0, 100 mM bistrispropane pH 7.5, 100 mM bistrispropane pH 8.0).

[5] = target: T3, human calcitonin receptor (Homo sapiens, UniProt P30988); test: Assay (VII) binding to the human calcitonin receptor (membrane, SPA); conditions: membranes, 125I-Calcitonin; read-out: hCT-R binding IC50
T3 construct: expressed in transfected cells; host or cells: BHK tk'ts 13
T3 sequence (P30988 25-474): T2 sequence (P30988 25-474)
Procedure: Assay (VII)—Determination of Binding to the Human Calcitonin Receptor (Membrane)
The binding assay was performed using scintillation proximity assay (SPA) beads (RPNQ0001) from PerkinElmer® and cell membranes prepared from a BHK tk'ts 13 cell line was stably transfected with the human calcitonin receptor and a CRE-responsive luciferase reporter gene. Membranes were prepared in the following way; the cells were rinsed with PBS and incubated with Versene for approximately 5 min before harvesting. The cells were flushed with PBS and the cell-suspension was centrifuged for 5 min at 1000 rpm. Cells were homogenized in a buffer containing 20 mM Na-HEPES and 10 mM EDTA (pH 7.4) and centrifuged at 20.000 rpm for 15 min. The resulting pellet was resuspended, homogenized and centrifuged (20.000 rpm, 15 min) in a buffer containing 20 mM Na-HEPES and 0.1 mM EDTA (pH 7.4, buffer 2). The resulting pellet was resuspended in buffer 2 and protein concentration was tested (BCA protein Assay, Pierce). The homogenate was kept cold during the whole procedure. The membranes were kept at −80° C. until use. Assay was performed in a 384 well Optiplate (PerkinElmer®) in a total volume of 40 ul. Membranes were mixed with SPA beads. Final concentration of membranes 35 ng/μL final and Final concentration of SPA beads was 0.05 mg/well. Test-compounds were dissolved in DMSO and further diluted in assay buffer (50 mM Hepes, pH 7.4, 1 mM CaCl2, 5 mM MgCl2, 0.1% OA and 0.02% Tween20). Radioligand ^125I-Calcitonin was dissolved in assay buffer and added to the Optiplate at a final concentration of 75 pM/well (approx. 30.000 cpm/10 ul). The final mixture was incubated for 120 min with shaking at 400 rpm at 25° C. prior to centrifugation (1500 rpm, 10 min). Samples were analyzed on TopCounter™ (Packard). The IC50 was calculated using (one site binding competition analysis) GraphPad Prism5 as a measure of receptor affinity.

[6] = target: T4, human amylin receptor (human calcitonin receptor + human RAMP3), BHK tk'ts 13 cells (Homo sapiens, UniProt O60896+P30988); test: Assay (Va) binding to the human amylin receptor (whole cell); conditions: read-out: hAmylin-R binding IC50
T4 construct: expressed in transfected cells; host or cells: BHK tk'ts 13
Procedure: The day before the assay the cells were Seeded into Poly-D-Lysin coated 384W Opaque White, BD BioCoat plates (10000 cells/well) and Incubated overnight at 37° C., 5% CO2, 95% humidity.

[7] = target: T5, human calcitonin receptor, BHK tk'ts 13 cells (Homo sapiens, UniProt P30988); test: Assay (VIIa) binding to the human calcitonin receptor (whole cell); conditions: read-out: hCT-R binding IC50
T5 construct: expressed in transfected cells; host or cells: BHK tk'ts 13
T5 sequence (P30988 25-474): T2 sequence (P30988 25-474)
Procedure: Assay (VIIa)—Determination of Binding to the Human Calcitonin Receptor (Whole Cell Binding)
The binding assay was performed using a BHK tk'ts 13 cell line was stably transfected with the human calcitonin receptor, and a CRE-responsive luciferase reporter gene.
The day before the assay the cells were Seeded into Poly-D-Lysin coated 384W Opaque White, BD BioCoat plates (10000 cells/well) and Incubated overnight at 37° C., 5% CO2, 95% humidity. Then, the cells were washed in HBSS (4° C.), and incubated overnight at 4° C. in a binding buffer containing test compounds, 50 pM [125I]-human calcitonin, media w/o phenol red, 500 ml 0.1% ovalbumin (5 ml 10% ovalbumin) 10 mM Hepes (5 ml 1M) 1× Glutamin (5 ml 100×) 1% P/S (5 ml 100%) Complete (1 tablet/50 ml) 0.1% Pluronic F68®. The morning after, the plates were washed three times in HBSS (4° C.), and lyzed in Lysis buffer (0.1 M NaOH), 1% SDS. Scintillation cocktail (MicroScint40®) was added and the plates were shaken at 500 rpm for a short period. The plate was incubated at room temperature in the dark for 1 hour and Read on a TopCounter™ (Packard). The IC50 was calculated using (one site binding competition analysis) GraphPad Prism5 as a measure of receptor affinity. Assay (VIII)—Determination of Binding to the Rat Calcitonin Receptor

T1 sequence (O60896 24-148, one chain of several): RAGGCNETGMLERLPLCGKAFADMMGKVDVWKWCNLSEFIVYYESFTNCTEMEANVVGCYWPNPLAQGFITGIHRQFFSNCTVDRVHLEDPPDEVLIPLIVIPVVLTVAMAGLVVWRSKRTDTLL
T4 sequence (O60896 24-148, one chain of several): as above

Row | Structure (SMILES) | EC50 [1] [pM] | EC50 [2] [pM] | EC50 [3] [pM] | solubility at 18 h ([4]; bistrispropane buffer, pH 6.5) [µM] | solubility at 18 h ([4]; bistrispropane buffer, pH 7.5) [µM] | solubility at 18 h ([4]; bistrispropane buffer, pH 6.0) [µM] | solubility at 18 h ([4]; bistrispropane buffer, pH 7.0) [µM] | solubility at 18 h ([4]; bistrispropane buffer, pH 8.0) [µM] | solubility at 18 h ([4]; glycylglycine buffer, pH 3.0) [µM] | solubility at 18 h ([4]; glycylglycine buffer, pH 4.0) [µM] | solubility at 18 h ([4]; glycylglycine buffer, pH 5.0) [µM] | IC50 [5] [pM] | IC50 [6] [pM] | IC50 [7] [pM]
1 | CC(=O)N[C@@H](C)C(=O)N[C@@H](CO)C(=O)N[C@@H](CCC(=O)O)C(=O)N[C@@H](CC(C)C)C(=O)N[C@@H](CO)C(=O)N[C@H](C(=O)N[C@@H](C)C(=O)N[C@@H](C)C(=O)N[C@@H](CC(C)C)C(=O)NCC(=O)N[C@@H](CCCNC(=N)N)C(=O)N[C@@H](CC(C)C)C(=O)N[C@@H](CO)C(=O)N[C@@H](C)C(=O)N[C@@H](CCC(=O)O)C(=O)N[C@@H](CC(C)C)C(=O)N[C@@H](Cc1c[nH]cn1)C(=O)N[C@@H](CCC(=O)O)C(=O)N[C@@H](CC(C)C)C(=O)N[C@@H](C)C(=O)N[C@H](C(=O)N[C@@H](CC(C)C)C(=O)N1CCC[C@H]1C(=O)N[C@@H](CCCNC(=N)N)C(=O)N[C@H](C(=O)N[C@@H](CCCCNC(=O)CC[C@H](NC(=O)CCCCCCCCCCCCCCCCCCC(=O)O)C(=O)O)C(=O)N[C@H](C(=O)NCC(=O)N[C@@H](CO)C(=O)NCC(=O)N[C@@H](CO)C(=O)N1CCC[C@H]1C(N)=O)[C@@H](C)O)[C@@H](C)O)[C@@H](C)O)[C@@H](C)O [compound 71, [N-terminal(acetyl), des1, 27K(C20 diacid-gGlu), 30S, 31G]mimylin] | 164 | 53 | 30 | ≥ 200 | ≥ 200 | ≥ 200 | ≥ 200 | ≥ 200 | ≥ 200 | ≥ 200 | ≥ 200 | 70 |  | 
2 | CC(C)C[C@H](NC(=O)[C@H](C)NC(=O)[C@H](C)NC(=O)[C@@H](NC(=O)[C@H](CO)NC(=O)[C@H](CC(C)C)NC(=O)[C@H](CCC(=O)O)NC(=O)[C@H](CO)NC(=O)[C@H](C)NC(=O)[C@@H](N)CCC(=O)O)[C@@H](C)O)C(=O)NCC(=O)N[C@@H](CCCNC(=N)N)C(=O)N[C@@H](CC(C)C)C(=O)N[C@@H](CO)C(=O)N[C@@H](C)C(=O)N[C@@H](CCC(=O)O)C(=O)N[C@@H](CC(C)C)C(=O)N[C@@H](Cc1c[nH]cn1)C(=O)N[C@@H](CCC(=O)O)C(=O)N[C@@H](CC(C)C)C(=O)N[C@@H](C)C(=O)N[C@H](C(=O)N[C@@H](CC(C)C)C(=O)N1CCC[C@H]1C(=O)N[C@@H](CCCNC(=N)N)C(=O)N[C@H](C(=O)N[C@@H](CCC(=O)O)C(=O)N[C@H](C(=O)NCC(=O)N1CCC[C@H]1C(=O)N[C@@H](CCC(=O)O)C(=O)N[C@@H](CO)C(=O)N1CCC[C@H]1C(N)=O)[C@@H](C)O)[C@@H](C)O)[C@@H](C)O [Ex. #1, mimylin] (H-EASELSTAALGRLSAELHELATLPRTETGPESP-NH2) |  | 3 |  |  |  |  |  |  |  |  |  |  | 511 | 431
3 | CC(C)C[C@H](NC(=O)[C@H](C)NC(=O)[C@H](C)NC(=O)[C@@H](NC(=O)[C@H](CO)NC(=O)[C@H](CC(C)C)NC(=O)[C@H](CCC(=O)O)NC(=O)[C@H](CO)NC(=O)[C@H](C)NC(=O)[C@@H](N)CCC(=O)O)[C@@H](C)O)C(=O)NCC(=O)N[C@@H](CCCNC(=N)N)C(=O)N[C@@H](CC(C)C)C(=O)N[C@@H](CO)C(=O)N[C@@H](C)C(=O)N[C@@H](CCC(=O)O)C(=O)N[C@@H](CC(C)C)C(=O)N[C@@H](Cc1c[nH]cn1)C(=O)N[C@@H](CCC(=O)O)C(=O)N[C@@H](CC(C)C)C(=O)N[C@@H](C)C(=O)N[C@H](C(=O)N[C@@H](CC(C)C)C(=O)N1CCC[C@H]1C(=O)N[C@@H](CCCNC(=N)N)C(=O)N[C@H](C(=O)N[C@@H](CCC(=O)O)C(=O)N[C@H](C(=O)NCC(=O)N[C@@H](CO)C(=O)NCC(=O)N[C@@H](CO)C(=O)N1CCC[C@H]1C(N)=O)[C@@H](C)O)[C@@H](C)O)[C@@H](C)O [22bb, H—EASELSTAALGRLSAELHELATLPRTETGSGSP—NH2] (H-EASELSTAALGRLSAELHELATLPRTETGSGSP-NH2) |  |  | 2 |  |  |  |  |  |  |  |  |  | 469 | 481
